Activity calls are given as the source filed them. No cut-off for these calls is given here.
Columns and labels:
[1] = test system: RAW264.7; assay: Antiinflammatory activity in mouse RAW264.7 cells assessed as inhibition of LPS-induced NO production at 10 uM preincubated for 2 hrs followed by LPS stimulation and measured after 24 hrs by Griess method relative to control; assay type: functional; settings: time 26 hrs
[2] = test system: RAW264.7; assay: Antiinflammatory activity in mouse RAW264.7 cells assessed as inhibition of LPS-induced NO production preincubated for 2 hrs followed by LPS stimulation and measured after 24 hrs by Griess method; assay type: functional, cell-based
[3] = Cytotoxicity against mouse RAW264.7 cells assessed as cell viability at 40 uM measured after 24 hrs by MTT assay relative to control; assay type: cell-based
[4] = test system: RAW264.7; assay: Cytotoxicity against mouse RAW264.7 cells assessed as reduction in cell viability at 60 uM measured after 24 hrs by MTT assay; assay type: cell-based; settings: raw264.7, 24 h
[5] = test system: RAW264.7; assay: Antiinflammatory activity in mouse RAW264.7 cells assessed as inhibition of LPS-induced TNFalpha production at 10 uM preincubated for 1 hr followed by LPS stimulation and measured after 22 hrs by ELISA; assay type: functional, cell-based; settings: time 23.0 hrs
[6] = test system: RAW264.7; assay: Antiinflammatory activity in mouse RAW264.7 cells assessed as inhibition of LPS-induced IL1beta production at 10 uM preincubated for 1 hr followed by LPS stimulation and measured after 22 hrs by ELISA; assay type: functional, cell-based; settings: time 23.0 hrs
[7] = test system: RAW264.7; assay: Antiinflammatory activity in mouse RAW264.7 cells assessed as inhibition of LPS-induced IL6 production at 10 uM preincubated for 1 hr followed by LPS stimulation and measured after 22 hrs by ELISA; assay type: functional, cell-based; settings: time 23.0 hrs
[8] = test system: RAW264.7; assay: Antiinflammatory activity in mouse RAW264.7 cells assessed as inhibition of LPS-induced TNFalpha production preincubated for 1 hr followed by LPS stimulation and measured after 22 hrs by ELISA; assay type: functional, cell-based; settings: dose 1.25-20 µM, time 23.0 hrs
[9] = test system: RAW264.7; assay: Antiinflammatory activity in mouse RAW264.7 cells assessed as inhibition of LPS-induced IL1beta production preincubated for 1 hr followed by LPS stimulation and measured after 22 hrs by ELISA; assay type: functional, cell-based; settings: dose 1.25-20 µM, time 23.0 hrs
[10] = test system: RAW264.7; assay: Antiinflammatory activity in mouse RAW264.7 cells assessed as inhibition of LPS-induced IL6 production preincubated for 1 hr followed by LPS stimulation and measured after 22 hrs by ELISA; assay type: functional, cell-based; settings: dose 1.25-20 µM, time 23.0 hrs
[11] = test system: RAW264.7; assay: Antiinflammatory activity in mouse RAW264.7 cells assessed as inhibition of LPS-induced iNOS expression preincubated for 1 hr followed by LPS stimulation and measured after 24 hrs by Western blot analysis; assay type: functional, cell-based; settings: dose 5-20 µM, time 25.0 hrs
[12] = test system: RAW264.7; assay: Antiinflammatory activity in mouse RAW264.7 cells assessed as inhibition of LPS-induced COX2 expression preincubated for 1 hr followed by LPS stimulation and measured after 24 hrs by Western blot analysis; assay type: functional, cell-based; settings: dose 5-20 µM, time 25.0 hrs
[13] = test system: RAW264.7; assay: Inhibition of LPS-induced NFkappaB activation in mouse RAW264.7 cells assessed as reduction in IkappaBalpha phosphorylation at 5 to 20 uM preincubated for 1 hr followed by LPS-stimulation and measured after 0.5 hrs by Western blot analysis; assay type: cell-based; settings: dose 5-20 µM, time 1.5 hrs
[14] = test system: RAW264.7; assay: Inhibition of LPS-induced NFkappaB activation in mouse RAW264.7 cells assessed as reduction in p65 nuclear translocation preincubated for 1 hr followed by LPS-stimulation and measured after 0.5 hrs by Western blot analysis; assay type: cell-based; settings: dose 5-20 µM, time 1.5 hrs
[15] = test system: RAW264.7; assay: Antiinflammatory activity in mouse RAW264.7 cells assessed as inhibition of LPS-induced ROS production preincubated for 1 hr followed by LPS stimulation and measured after 24 hrs by DCFH-DA staining based flow cytometry; assay type: functional, cell-based; settings: dose 2.5-10 µM, time 25.0 hrs
[16] = test system: Mus musculus; assay: Antiinflammatory activity in CCl4-induced C57BL/6J mouse model of liver injury assessed as reduction in liver damage at 50 to 200 mg/kg administered daily for 7 days followed by CCl4 addition and measured after 24 hrs by H and E staining based microscopic analysis; assay type: functional, organism-based; settings: dose 50-200 mg/kg, time 8.0 day
[17] = test system: Mus musculus; assay: Antiinflammatory activity in CCl4-induced C57BL/6J mouse model of liver injury assessed as reduction in ALT level administered daily for 7 days followed by CCl4 addition and measured after 24 hrs; assay type: functional, organism-based; settings: dose 50-200 mg/kg, time 8.0 day
[18] = test system: Mus musculus; assay: Antiinflammatory activity in CCl4-induced C57BL/6J mouse model of liver injury assessed as reduction in TNFalpha expression administered daily for 7 days followed by CCl4 addition and measured after 24 hrs by ELISA; assay type: functional, organism-based; settings: dose 50-200 mg/kg, time 8.0 day
[19] = test system: Mus musculus; assay: Antiinflammatory activity in CCl4-induced C57BL/6J mouse model of liver injury assessed as reduction in IL1beta expression administered daily for 7 days followed by CCl4 addition and measured after 24 hrs by ELISA; assay type: functional, organism-based; settings: dose 50-200 mg/kg, time 8.0 day
[20] = test system: Mus musculus; assay: Antiinflammatory activity in CCl4-induced C57BL/6J mouse model of liver injury assessed as reduction in IL6 expression administered daily for 7 days followed by CCl4 addition and measured after 24 hrs by ELISA; assay type: functional, organism-based; settings: dose 50-200 mg/kg, time 8.0 day

SMILES | IC50 [2] [µM] | inhibition at 10 µM [1] [%] | viability at 24 h, 40 µM [3] [%] | inhibition [5] | inhibition [6] | inhibition [7] | further results
COc1ccc([C@@H]2CC(=O)c3c(O)cc(O)cc3O2)cc1O [HESPERETIN] | 48.6 | 18.4 | 121 | Active | Active | Active | 
COc1ccc([C@@H]2CC(=O)c3c(O)cc(OCc4cn(CC(=O)c5ccccc5)nn4)cc3O2)cc1O | 16.9 | 32.1 | 112 | Active | Active | Active | 
COc1ccc([C@@H]2CC(=O)c3c(O)cc(OCc4cn(Cc5cccc(C(F)(F)F)c5)nn4)cc3O2)cc1O | 19.9 | 35.5 | 93 | Active | Active | Active | 
COc1ccc([C@@H]2CC(=O)c3c(O)cc(OCc4cn(Cc5cccc(C#N)c5)nn4)cc3O2)cc1O | 18 | 32.9 | 56 | Active | Active | Active | 
COc1ccc([C@@H]2CC(=O)c3c(O)cc(OCc4cn(CC(=O)c5ccccc5F)nn4)cc3O2)cc1O | 18.9 | 34.5 | 113 | Active | Active | Active | 
COc1ccc([C@@H]2CC(=O)c3c(O)cc(OCc4cn(Cc5ccc(Cl)cc5)nn4)cc3O2)cc1O | 17.8 | 29 | 94 | Active | Active | Active | 
COc1ccc([C@@H]2CC(=O)c3c(O)cc(OCc4cn(CCO)nn4)cc3O2)cc1O | 17.8 | 24.7 | 112 | Active | Active | Active | 
COc1ccc([C@@H]2C/C(=N\O)c3c(O)cc(OCc4cn(Cc5ccccc5C)nn4)cc3O2)cc1O | 18 | 22.5 | 83 | Active | Active | Active | 

Compounds with a lower IC50 [2], results first:

IC50 [2] [µM] | SMILES | inhibition at 10 µM [1] [%] | viability at 24 h, 40 µM [3] [%] | inhibition [5] | inhibition [6] | inhibition [7] | further results
2.34 | CCCn1cc(COc2cc(O)c3c(c2)O[C@H](c2ccc(OC)c(O)c2)C/C3=N\O)nn1 | 67.5 | 114 | Active | Active | Active | Activity [4]: Non-Toxic; inhibition [8]: Dose-dependent effect; inhibition [9]: Dose-dependent effect; inhibition [10]: Dose-dependent effect; inhibition [11]: Dose-dependent effect; inhibition [12]: Dose-dependent effect; inhibition [13]: Active; inhibition [14]: Dose-dependent effect; inhibition [15]: Dose-dependent effect; Activity [16]: Active; Activity [17]: Dose-dependent effect; Activity [18]: Dose-dependent effect; Activity [19]: Dose-dependent effect; Activity [20]: Dose-dependent effect
13.3 | COc1ccc([C@@H]2C/C(=N\O)c3c(O)cc(OCc4cn(Cc5ccccc5Cl)nn4)cc3O2)cc1O | 33 | 86 | Active | Active | Active | 
10.5 | COc1ccc([C@@H]2CC(=O)c3c(O)cc(OCc4cn(C5CCCC5)nn4)cc3O2)cc1O | 53.8 | 110 | Active | Active | Active | 
12.5 | COc1ccc([C@@H]2CC(=O)c3c(O)cc(OCc4cn(Cc5ccccc5C(F)(F)F)nn4)cc3O2)cc1O | 48 | 135 | Active | Active | Active | 
7.32 | COc1ccc([C@@H]2CC(=O)c3c(O)cc(OCc4cn(Cc5ccccc5F)nn4)cc3O2)cc1O | 63.3 | 74 | Active | Active | Active | 
13.8 | C=CCn1cc(COc2cc(O)c3c(c2)O[C@H](c2ccc(OC)c(O)c2)CC3=O)nn1 | 50.1 | 118 | Active | Active | Active | 
11 | COc1ccc([C@@H]2CC(=O)c3c(O)cc(OCc4cn(Cc5ccccc5)nn4)cc3O2)cc1O | 49.8 | 98 | Active | Active | Active | 
15.2 | COc1ccc([C@@H]2CC(=O)c3c(O)cc(OCc4cn(C)nn4)cc3O2)cc1O | 40 | 105 | Active | Active | Active | 

— ChEMBL document CHEMBL4732160, “Design and synthesis of 7-O-1,2,3-triazole hesperetin derivatives to relieve inflammation of acute liver injury in mice” (Eur J Med Chem, 2021)
